Consider 1 molecule from patent US8283322B2, “Formulations for nonsurgical exogenous crosslink therapy” (Orthopeutics, LP, priority 2008, dated 2012).

Molecules are shown by their SMILES. Values after ≈ are worked out from the molar mass of the structure shown.

Data set [1] deals with lumbar intervertebral joints (posterior annulus). As to the kind of experiment: Indentation testing (stress relaxation, hardness) with compression/flexion fatigue cycling. Conditions: soaking the calf disc tissue in 0.33% concentration of genipin. An excerpt:
Thirty-three lumbar intervertebral joints were obtained from ten four-month-old calf spines. The intervertebral joints were arbitrarily divided into 3 groups: untreated controls-12 specimens, Genipin treatment 1 (G1)-6 specimens, and Genipin treatment 2 (G2)-13 specimens. The G1 treatment involved 72 hrs of soaking the whole specimen in PBS with a 0.033% concentration of Genipin. Similarly, the G2 treatment involved 72 hrs of soaking whole specimens in PBS with 0.33% concentration of Genipin. 0.33% Genipin in PBS is produced by dilution of 50 ml of 10×. PBS (Phosphate Buffered Saline) with distilled water by a factor of 10 to give 500 ml (500 gm) of PBS and mixing in 1.65 grams of genipin to produce the 0.33% (wt %, gm/gm) solution. […] Some controls were not subjected to soaking prior to fatigue testing. Others were soaked in a saline solution for 72 hrs. Water mass loss experiments were conducted to establish the equivalency of outer annulus hydration between the genipin soaked and 0.9% saline soaked controls. The selection of treatments was randomized by spine and level. […]
Following initial indentation testing, the specimen was loaded repetitively in flexion-compression at 200 N for 3000 cycles at a rate of 0.25 Hz. […] Several statistical measures were calculated to evaluate the significance of the results. […]

Data set [2] in a line: physchem. The format is physicochemical. The settings on record: for half-life: buffer. The text has this: In the case of the crosslinking agent genipin (GP), using a quantitative HPLC assay, the inventors have shown that the agent is unstable in aqueous solution. The rate of degradation can be very rapid and is dependent on pH. […] In all cases this instability is not suitable for long term storage of a genipin-containing crosslinking agent at ambient temperature. […] The inventors have also shown that GP is stable as a powder for at least 1 year. These observations have consequences for the manufacture and/or final form of a crosslinking reagent containing GP, i.e., the GP would have to be stored either in powdered form or in a suitable non-aqueous, water-miscible solvent. The solvent could be, but is not limited to, ethanol, methanol, propanol, acetonitrile or dimethyl sulfoxide.

Data set [3] can be described thus: physchem. The class given is physicochemical. An excerpt:
In the case of crosslinking agents that are not very water-soluble, additional reagents may be required to maintain the solubility of the crosslinking agent. Such reagents should be miscible with water and function to increase the solubility of the crosslinking agent by reducing the hydrophilicity of the aqueous medium. […] At the upper limit, GP was soluble in 100% DMSO to a level of 2.6M. […] Thus manipulation of the buffer concentration and the addition of co-solvents allows for the manipulation of the crosslinking reagent concentration to the desired level. The values were all determined at ambient room temperature. Crosslinker solubility could also be increased by increasing the temperature of the solvent.

Take `COC(=O)C1=CO[C@@H](O)[C@@H]2C(CO)=CC[C@H]12` [Genipin, genipin]: in data set [1], the “reduction in viscoelastic degradation” value is “More than a three-fold reduction”. The “degradation in non-aqueous solvents” value in “physchem [2]” was “no GP degradation was detected”. The “stability as a powder” value in “physchem [2]” is listed as “at least 1 year”. The half-life in the data set “physchem [2]” (pH 4) is 214 h; in “physchem [2]” (pH 5), 219 h; in the data set “physchem [2]” (pH 6) it was 135 h; in the data set “physchem [2]” (pH 7), 60 h; in the data set “physchem [2]” (pH 8) it was 18 h; in “physchem [2]” (pH 9), 2.8 h. The solubility in the data set “physchem [3]” (aqueous buffer) is 60.4 mM (≈ 13.7 mg/mL); in the data set “physchem [3]” (aqueous with cosolvent or surfactant or cyclodextrin) it was 74.6 mM (≈ 16.9 mg/mL); in the data set “physchem [3]” (organic solvent or mixture), 2600 mM (≈ 588 mg/mL); in the data set “physchem [3]” (pH 9, aqueous buffer) it was 39.6 mM (≈ 8.96 mg/mL); in “physchem [3]” (pH 9, aqueous with cosolvent or surfactant or cyclodextrin), 63.3 mM (≈ 14.3 mg/mL).

One may read the half-life as the time in which the quantity being followed falls by half. By solubility is commonly meant the dissolved amount per volume that the medium holds.
